The nature of assay [1]: Plasmodium falciparum Dd2 Sybr green parasite growth Measured in Cell-Based and Microorganism Combination System Using Plate Reader - 2153-01_Inhibitor_Dose_DryPowder_Activity_Set3. Type of assay: functional.
The nature of assay [2]: viability loss in THP-1 monocytes – THP-1 cells, cytotoxicity control for Vif-APOBEC3G degradation inhibitor project, dose response (AID 1117359). Type of assay: functional. Particulars: THP-1.
Assay [3] has as its target Ubiquitin carboxyl-terminal hydrolase BAP1 (Homo sapiens, UniProt Q92560). The assay is described as follows: inhibition of BAP1 ubiquitin hydrolase activity – biochemical, dose response (AID 714). Format: functional.
In a further assay the target is Transthyretin (Homo sapiens, UniProt P02766). Put plainly: Luminescence-based cell-based high throughput dose response assay to identify activators of Transthyretin (TTR) transcription. Format: functional.
The next assay concerns the target Phospholipase D1 (Homo sapiens, UniProt Q13393). The assay is described as follows: PLD1 Cellular Concentration Response Study. Type of assay: functional.
For the next assay, the target named is Phospholipase D2 (Homo sapiens, UniProt O14939). Put plainly: PLD2 Cellular Concentration Response Study. Type of assay: functional.
Assay [4] can be described thus: hypoxia HIF reporter signal reduction – HeLa cells, luminescence, dry powder samples, 2158-08, ARNT-TACC3 inhibitor project, dose response (AID 720560). Format: functional, cell-based.
Assay [5] is described as follows: suppression of HIF-dependent reporter luminescence – cell-based, dry powder samples, 2158-07, ARNT-TACC3 inhibitor project, dose response (AID 720561). Type of assay: functional.

Active and inactive are the calls of the source.

Ubiquitin carboxyl-terminal hydrolase BAP1, sequence (Q92560 whole entry): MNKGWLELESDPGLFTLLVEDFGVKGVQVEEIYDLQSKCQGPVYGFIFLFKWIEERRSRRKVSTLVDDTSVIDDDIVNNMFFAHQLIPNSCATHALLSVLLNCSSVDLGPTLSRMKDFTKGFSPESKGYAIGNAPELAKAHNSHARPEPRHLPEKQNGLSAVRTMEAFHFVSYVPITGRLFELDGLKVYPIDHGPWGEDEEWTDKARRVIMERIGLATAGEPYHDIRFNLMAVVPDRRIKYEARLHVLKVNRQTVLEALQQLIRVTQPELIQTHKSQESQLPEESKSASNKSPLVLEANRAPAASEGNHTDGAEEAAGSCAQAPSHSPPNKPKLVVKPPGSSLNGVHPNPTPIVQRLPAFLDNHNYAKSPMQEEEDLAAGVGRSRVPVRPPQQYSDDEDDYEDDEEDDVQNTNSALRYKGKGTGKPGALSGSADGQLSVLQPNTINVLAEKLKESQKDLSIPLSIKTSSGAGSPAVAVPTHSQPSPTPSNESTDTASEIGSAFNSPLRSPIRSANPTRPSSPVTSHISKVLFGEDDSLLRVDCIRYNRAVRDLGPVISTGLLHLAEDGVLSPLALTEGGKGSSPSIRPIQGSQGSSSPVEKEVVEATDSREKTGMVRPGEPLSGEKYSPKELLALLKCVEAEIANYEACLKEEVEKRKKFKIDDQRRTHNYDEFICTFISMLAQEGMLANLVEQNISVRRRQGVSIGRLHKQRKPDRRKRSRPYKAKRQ
Phospholipase D1, sequence (Q13393 whole entry): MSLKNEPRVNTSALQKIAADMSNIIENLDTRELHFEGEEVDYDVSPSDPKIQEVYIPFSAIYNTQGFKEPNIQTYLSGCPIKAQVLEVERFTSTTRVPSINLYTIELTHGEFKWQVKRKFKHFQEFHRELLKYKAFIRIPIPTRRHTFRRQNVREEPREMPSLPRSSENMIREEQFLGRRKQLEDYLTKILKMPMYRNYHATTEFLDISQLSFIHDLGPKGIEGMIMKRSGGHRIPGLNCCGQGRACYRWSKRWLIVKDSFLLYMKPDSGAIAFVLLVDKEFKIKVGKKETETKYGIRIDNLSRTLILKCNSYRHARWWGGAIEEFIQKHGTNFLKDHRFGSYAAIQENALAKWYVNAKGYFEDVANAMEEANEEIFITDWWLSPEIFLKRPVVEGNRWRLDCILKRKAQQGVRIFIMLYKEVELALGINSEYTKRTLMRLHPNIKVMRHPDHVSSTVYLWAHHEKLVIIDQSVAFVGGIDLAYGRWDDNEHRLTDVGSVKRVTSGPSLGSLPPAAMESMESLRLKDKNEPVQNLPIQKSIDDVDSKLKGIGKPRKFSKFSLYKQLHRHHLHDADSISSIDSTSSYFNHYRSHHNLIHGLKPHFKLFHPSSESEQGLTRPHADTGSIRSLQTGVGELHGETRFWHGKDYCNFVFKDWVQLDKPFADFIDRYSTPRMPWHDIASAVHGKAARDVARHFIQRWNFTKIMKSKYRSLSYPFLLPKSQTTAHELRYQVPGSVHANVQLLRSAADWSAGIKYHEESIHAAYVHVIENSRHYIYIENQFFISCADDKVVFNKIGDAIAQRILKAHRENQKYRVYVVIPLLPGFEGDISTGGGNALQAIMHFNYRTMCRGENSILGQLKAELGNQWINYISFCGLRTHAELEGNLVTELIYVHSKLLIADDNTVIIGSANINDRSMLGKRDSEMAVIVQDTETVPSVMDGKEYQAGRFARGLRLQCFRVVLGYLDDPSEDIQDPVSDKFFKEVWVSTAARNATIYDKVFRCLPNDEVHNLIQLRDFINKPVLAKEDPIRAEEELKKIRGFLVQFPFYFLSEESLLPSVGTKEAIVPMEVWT
Phospholipase D2, sequence (O14939 whole entry): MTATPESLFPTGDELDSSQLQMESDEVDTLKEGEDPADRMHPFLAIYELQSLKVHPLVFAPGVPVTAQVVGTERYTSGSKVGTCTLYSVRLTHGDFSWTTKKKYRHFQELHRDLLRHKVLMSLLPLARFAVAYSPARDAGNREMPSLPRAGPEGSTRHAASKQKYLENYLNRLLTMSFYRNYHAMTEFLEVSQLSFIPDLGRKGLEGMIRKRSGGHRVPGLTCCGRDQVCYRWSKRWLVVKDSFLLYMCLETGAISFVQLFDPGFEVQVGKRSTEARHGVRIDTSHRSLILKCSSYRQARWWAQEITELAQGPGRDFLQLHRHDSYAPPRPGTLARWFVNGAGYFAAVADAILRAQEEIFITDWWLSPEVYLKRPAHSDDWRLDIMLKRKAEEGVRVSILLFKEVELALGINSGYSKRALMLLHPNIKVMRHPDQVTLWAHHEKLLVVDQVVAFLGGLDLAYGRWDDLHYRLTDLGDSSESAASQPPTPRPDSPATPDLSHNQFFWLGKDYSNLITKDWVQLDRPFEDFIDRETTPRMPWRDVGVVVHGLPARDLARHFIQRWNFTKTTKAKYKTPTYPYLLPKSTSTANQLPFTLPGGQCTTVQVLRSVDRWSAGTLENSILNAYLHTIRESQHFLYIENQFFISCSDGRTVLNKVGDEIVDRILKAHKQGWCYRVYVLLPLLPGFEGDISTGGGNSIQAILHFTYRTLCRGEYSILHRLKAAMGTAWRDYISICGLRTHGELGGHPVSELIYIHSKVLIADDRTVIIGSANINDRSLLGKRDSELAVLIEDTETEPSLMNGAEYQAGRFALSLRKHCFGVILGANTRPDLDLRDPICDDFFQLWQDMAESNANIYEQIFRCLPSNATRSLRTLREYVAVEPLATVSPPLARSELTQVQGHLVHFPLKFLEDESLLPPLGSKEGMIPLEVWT

As a reminder, the AC50 is the concentration giving half of the maximal activity seen. As to `Cc1noc(C)c1NC(=O)Nc1ccc2c(c1)C(=O)N([C@@H](C)CN(C)C)C[C@@H](C)[C@H](CN(C)S(=O)(=O)c1ccc(F)cc1)OCCCC[C@H](C)O2`, the AC50 in assay [1] is 0.0289 µM (active).
By CC50 is commonly meant the concentration giving 50% cytotoxicity. With `CCCCCC(=O)N1C[C@@H](n2cc(C3CC3)nn2)[C@H](O)C[C@@H]1c1ccc(C)cc1`, in assay [2], the 50% cytotoxic concentration (CC50) was > 40 µM (active).
The term IC50 denotes the concentration needed to halve the response being measured. `O=c1[nH]c(SCc2ccc(F)cc2)nc2c1cnn2-c1ccc(F)cc1`: the half-inhibitory concentration (IC50) in assay [3] was > 50 µM (not active).
One may read the EC50 as the midpoint of the concentration-response curve. Regarding `N=c1ccn(CC(=O)NC(N)=O)c2ccccc12`, the EC50 on Transthyretin is > 167 µM (inactive).
For the molecule `O=C(NCCN1CCC2(CC1)C(=O)NCN2C(=O)C1CCC1)c1ccc2ccccc2c1`, the IC50 on Phospholipase D1 was 4 µM (active); on Phospholipase D2, 0.32 µM (active).
As to `CC(C)CNc1ccnc(NCc2csc(-c3ccccc3)n2)n1`, the concentration at half-maximal activity (AC50) is 4.74 µM (active) in assay [4] and 5.54 µM (active) in assay [5].
